Assay results taken from patent publication US5998654A, “Retinoic acid receptor antagonist compounds and methods” (Ligand Pharmaceuticals Incorporated, priority 1997, dated 1999).

Key:
[1] = target: T1, RARγ (Homo sapiens, UniProt P13631); test: RAR binding, RARγ; conditions: Kd from IC50 by Cheng-Prussof equation
T1 sequence (P13631 1-454): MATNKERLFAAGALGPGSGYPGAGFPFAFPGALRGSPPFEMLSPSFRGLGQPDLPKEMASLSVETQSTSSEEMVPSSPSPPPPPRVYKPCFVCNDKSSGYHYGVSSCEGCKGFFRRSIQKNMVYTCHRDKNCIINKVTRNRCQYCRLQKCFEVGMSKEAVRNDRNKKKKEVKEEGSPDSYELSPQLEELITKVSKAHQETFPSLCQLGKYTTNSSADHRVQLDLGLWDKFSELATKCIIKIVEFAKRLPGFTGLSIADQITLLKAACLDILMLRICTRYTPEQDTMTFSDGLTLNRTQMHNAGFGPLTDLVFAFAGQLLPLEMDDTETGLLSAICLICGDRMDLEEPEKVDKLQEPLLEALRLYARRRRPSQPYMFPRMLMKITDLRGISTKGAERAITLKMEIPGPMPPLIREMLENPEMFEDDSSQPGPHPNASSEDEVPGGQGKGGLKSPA
Experimental: Non-specific binding was defined as that binding remaining in the presence of 500 nM of the appropriate unlabelled compound. At the end of the incubation period, bound from free ligand were separated. The amount of bound tritiated retinoids was determined by liquid scintillation counting of an aliquot (700 μL) of the supernatant fluid or the hydroxylapatite pellet.
After correcting for non-specific binding, IC50 values were determined. […] The IC50 value was determined graphically from a log-logit plot of the data. The Kd values were determined by application of the Cheng-Prussof equation to the IC50 values, the labeled ligand concentration and the Kd of the labeled ligand.

[2] = target: T2, RARβ (Homo sapiens, UniProt P10826); test: co-transfection assay, antagonist activity on RARβ; assay type: cell-based; design: expressed in transfected cells; host or cells: CV-1 cells (African green monkey kidney); conditions: CV-1 cells, in presence of known RAR agonist TTNPB; for IC50: read-out: IC50 antagonist potency, RARβ
T2 sequence (P10826 1-448 isoform P10826-2): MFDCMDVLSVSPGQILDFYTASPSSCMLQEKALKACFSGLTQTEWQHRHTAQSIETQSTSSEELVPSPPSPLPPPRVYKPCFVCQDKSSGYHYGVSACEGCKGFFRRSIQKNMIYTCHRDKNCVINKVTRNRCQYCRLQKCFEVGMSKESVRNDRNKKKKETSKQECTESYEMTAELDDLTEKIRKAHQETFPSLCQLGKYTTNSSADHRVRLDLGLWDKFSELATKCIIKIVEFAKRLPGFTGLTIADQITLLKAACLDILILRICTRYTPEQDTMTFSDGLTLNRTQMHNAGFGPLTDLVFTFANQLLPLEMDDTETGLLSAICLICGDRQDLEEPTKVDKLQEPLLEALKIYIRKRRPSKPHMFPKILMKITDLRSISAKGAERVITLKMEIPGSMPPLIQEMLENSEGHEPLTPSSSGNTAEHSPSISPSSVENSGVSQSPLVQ
Description: (§1) This assay is described in further detail in U.S. Pat. Nos. 4,981,784 and 5,071,773, the disclosures of which are incorporated herein by reference.
(§2) In the co-transfection assay, a cloned cDNA for an IR (e.g., human RARα:, RARβ, RXRγ) under the control of a constitutive promoter (e.g., the SV 40 promoter) is introduced by transfection (a procedure to induce cells to take up foreign genes) into a background cell substantially devoid of endogenous IRs. This introduced gene directs the recipient cells to make the IR protein of interest. A second gene is also introduced (co-transfected) into the same cells in conjunction with the IR gene. This second gene, comprising the cDNA for a reporter protein, such as firefly luciferase (LUC), is controlled by an appropriate hormone responsive promoter containing a hormone response element (HRE). This reporter plasmid functions as a reporter for the transcription-modulating activity of the target IR. Thus, the reporter acts as a surrogate for the products (mRNA then protein) normally expressed by a gene under control of the target receptor and its native hormone.
(§3) The co-transfection assay can detect small molecule agonists or antagonists of target IRs. Exposing the transfected cells to an agonist ligand compound increases reporter activity in the transfected cells. This activity can be conveniently measured, e.g., by increasing luciferase production, which reflects compound-dependent, IR-mediated increases in reporter transcription. To detect antagonists, the co-transfection assay is carried out in the presence of a constant concentration of an agonist to the target IR (e.g., all-trans retinoic acid for RARα) known to induce a defined reporter signal. Increasing concentrations of a suspected antagonist will decrease the reporter signal (e.g., luciferase production). The co-transfection assay is therefore useful to detect both agonists and antagonists of specific IRs. Furthermore, it determines not only whether a compound interacts with a particular IR, but whether this interaction mimics (agonizes) or blocks (antagonizes) the effects of the native regulatory molecules on target gene expression, as well as the specificity and strength of this interaction.
CV-1 cells (African green monkey kidney fibroblasts) were cultured in the presence of Dulbecco's Modified Eagle Medium (DMEM) supplemented with 10% charcoal resin-stripped fetal bovine serum then transferred to 96-well microtiter plates one day prior to transfection.
To determine RAR and/or RXR agonist activity of the compounds of the present invention, the CV-1 cells were transiently transfected by calcium phosphate coprecipitation according to the procedure of Berger et al., 41 J. Steroid Biochem. Mol. Biol., 733 (1992) with the following receptor expressing plasmids: pRShRARα: Giguere et al., 330 Nature, 624 (1987); pRShRARβ and pRShRARγ, Ishikawa et al., 4 Mol. Endocrin., 837 (1990); pRShRXRα, Mangelsdorf et al., 345 Nature, 224 (1990); and pRSmRXRβ and pRSmRXRγ, Mangelsdorf et al., 6 Genes & Devel., 329 (1992), the disclosures of which are herein incorporated by reference. Each of these receptor expressing plasmids was co-transfected at a concentration of 5 ng/well, along with a basal reporter plasmid at 100 ng/well, the internal control plasmid pRS-β-Gal at 50 ng/well and filler DNA, pGEM at 45 ng/well.
The basal reporter plasmid D-MTV-LUC (Hollenberg and Evans, 55 Cell, 899 (1988), the disclosure of which is herein incorporated by reference) containing two copies of the TRE-palindromic response element described in Umesono et al., 336 Nature, 262 (1988), the disclosure of which is herein incorporated by reference, was used in transfections for the RARs, and the reporter plasmid CRBPIIFKLUC, which contains an RXRE (retinoid X receptor response element, as described in Mangelsdorf et al., 66 Cell, 555 (1991), the disclosure of which is herein incorporated by reference), was used in transfections for the RXRs.

[3] = target: T1, RARγ; test: co-transfection assay, agonist activity on RARγ; assay type: cell-based; design: expressed in transfected cells; host or cells: CV-1 cells (African green monkey kidney); conditions: CV-1 cells; read-out: EC50 agonist potency, RARγ
Description: as §1, §2, §3
CV-1 cells (African green monkey kidney fibroblasts) were cultured in the presence of Dulbecco's Modified Eagle Medium (DMEM) supplemented with 10% charcoal resin-stripped fetal bovine serum then transferred to 96-well microtiter plates one day prior to transfection. […]

Structure (SMILES) | Kd [1] | efficacy of antagonist, % of maximal inhibition, RARβ (in parentheses after IC50) [2] | IC50 [2] | EC50 [3]
CCCCOc1c(C(C)(C)C)cc(/C(C)=C/C=C/C(C)=C/C(=O)O)cc1C(C)(C)C [Compound 7, 2E, 4E, 6E-[7-(3,5-Di-t-butyl-4-n-butoxyphenyl)-3-methyl]-octa-2,4,6-trienoic acid] | 17 nM | 85% | 4 nM | > 10000 nM
CCCOc1c(C(C)(C)C)cc(/C(C)=C/C=C/C(C)=C/C(=O)O)cc1C(C)(C)C [Compound 8, 2E, 4E, 6E-[7-(3,5-Di-t-butyl-4-n-propoxyphenyl)-3-methyl]-octa-2,4,6-trienoic acid] | 4 nM | 85% | 1 nM | > 10000 nM
CCCCCOc1c(C(C)(C)C)cc(/C(C)=C/C=C/C(C)=C/C(=O)O)cc1C(C)(C)C [Compound 9, 2E, 4E, 6E-[7-(3,5-Di-t-butyl-4-n-pentoxyphenyl)-3-methyl]-octa-2,4,6-trienoic acid] | 14 nM | 86% | 17 nM | > 10000 nM
C=C(c1ccccc1)c1cc(/C(C)=C/C=C/C(C)=C/C(=O)O)cc(C(C)(C)C)c1 [Compound 17, (2E,4E,6E)-7-[3-t-butyl-5-(1-phenyl-vinyl)-phenyl]-3-methyl-octa-2,4,6-trienoic acid] | 14 nM | 90% | 5 nM | > 10000 nM
